One assay deals with C4-2 cells. Put plainly: Cell proliferation assay (CellTiter-Glo, 5-day exposure), C4-2. As to conditions: C4-2, 1000 cells/well, Th-227 labelled at 375 kBq/nmol, mean of 1 to 6 experiments. It counts as cell-based. In a few lines: (§1)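 Seeding was 4000 cells/well for VCaP and 1000 cells/well for 22Rv1, C4-2 and LNCaP, followed by overnight culture at 37° C and 5% CO2. Cells were exposed to Thorium-227-labeled PSMA ligands for 5 days, and viability was measured by CellTiter-Glo luminescence both at treatment start and at the end.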
For orientation: Cellular ATP, detected with luciferase, serves as a proxy for viable cell number.

For a further assay, the system named is 22Rv1 cells. Put plainly: Cell proliferation assay (CellTiter-Glo, 5-day exposure), 22Rv1. The format is cell-based. As to conditions: 22Rv1, 1000 cells/well, Th-227 labelled at 375 kBq/nmol, mean of 1 to 6 experiments. The procedure, abridged:
as §1

For assay [1], the target named is T1, PSMA-expressing LNCaP cells (Homo sapiens, UniProt Q04609).
T1 construct: PSMA-expressing LNCaP cells; endogenous in cells; host or cells: LNCaP
T1 sequence (Q04609 whole entry): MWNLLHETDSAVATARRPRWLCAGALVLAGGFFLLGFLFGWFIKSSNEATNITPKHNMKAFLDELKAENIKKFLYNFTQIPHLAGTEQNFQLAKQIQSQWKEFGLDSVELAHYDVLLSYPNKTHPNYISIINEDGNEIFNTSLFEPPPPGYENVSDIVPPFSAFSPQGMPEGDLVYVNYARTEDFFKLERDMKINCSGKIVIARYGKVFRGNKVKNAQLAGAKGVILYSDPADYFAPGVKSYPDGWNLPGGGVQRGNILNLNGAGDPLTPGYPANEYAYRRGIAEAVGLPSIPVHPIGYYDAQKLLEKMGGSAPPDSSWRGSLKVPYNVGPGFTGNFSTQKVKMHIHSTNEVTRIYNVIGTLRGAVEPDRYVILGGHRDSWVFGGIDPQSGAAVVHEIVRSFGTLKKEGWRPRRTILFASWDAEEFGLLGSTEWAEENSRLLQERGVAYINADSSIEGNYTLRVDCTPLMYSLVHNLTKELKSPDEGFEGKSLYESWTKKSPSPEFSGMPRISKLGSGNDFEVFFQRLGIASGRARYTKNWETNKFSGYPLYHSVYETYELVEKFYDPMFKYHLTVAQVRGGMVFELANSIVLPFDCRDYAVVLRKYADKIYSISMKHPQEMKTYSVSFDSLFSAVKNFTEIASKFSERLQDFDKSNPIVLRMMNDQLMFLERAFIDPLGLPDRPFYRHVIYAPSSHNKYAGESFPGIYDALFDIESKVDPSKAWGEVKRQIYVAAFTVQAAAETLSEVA
Put plainly: Internalization assay (membrane bound and internalized Th-227). It counts as cell-based. As to conditions: 10 nM radiolabeled compound, Th-227 at 375 kBq/nmol, triplicates; for Internalized in LNCaP fmol/10^6 cells 30 min / Membrane bound in LNCaP fmol/10^6 cells 30 min: 30 min incubation; for Internalized in LNCaP fmol/10^6 cells 2 h / Membrane bound in LNCaP fmol/10^6 cells 2 h: 2 h incubation. In a few lines: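 LNCaP cells on poly-L-lysine-coated wells were exposed to 10 nM (final) Th-227-labelled PSMA ligands (375 kBq/nmol) for 30 min or 2 h at 37 °C. Glycine-HCl (50 mM) washes gave membrane-bound activity, and 0.3N NaOH lysates gave internalized activity, both by gamma counting. Values are fmol Th-227 per 10^cells from triplicates.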

Assay [2] has as its system LNCaP human prostate cancer cells. The assay is described as follows: LNCaP xenograft efficacy study (T/C tumor area). The format is in vivo, SCID mice. The procedure, abridged: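 SCID mice with testosterone pellet bearing s.c. flank LNCaP xenografts (5×10^6 cells in Matrigel) were treated i.v. with a defined radioactive dose once tumors reached 35-50 mm^2 (n=10/group). Tumor area (caliper, longest diameter × perpendicular) measured 2-3× weekly; T/C ratio calculated from tumor areas when vehicle group closed.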

Where [3] appears, read: Example II, 750 kBq/kg weekly for 5 weeks, day 120.
The mark [4] stands for this setting: Example V, day 27 after start of therapy, once 750 kBq/kg.

On to `O=C([O-])CN1CCN(CC(=O)[O-])CCN(CC(=O)NCC2CCC(C(=O)NC(Cc3ccc4ccccc4c3)C(=O)NCCCCC(NC(=O)NC(CCC(=O)O)C(=O)O)C(=O)O)CC2)CCN(CC(=O)[O-])CC1.[227Th+4]` [Example 1-B-227Th, [^227Th]Thorium (3S,10S,14S)-3-[(naphthalen-2-yl)methyl]-1,4,12-trioxo-1-{(1r,4S)-4-[(2-{4,7,10-tris[(carboxy-kappaO)methyl]-1,4,7,10-tetraazacyclododecan-1-yl-kappa^4N^1,N^4,N^7,N^10}acetamido)methyl]cyclohexyl}-2,5,11,13-tetraazahexadecane-10,14,16-tricarboxylate], for which the “Proliferation assay on cancer cell lines by TTCs Default Pivot #3 IC50 [kBq/mL] C4-2 1000cells 375kBq/nmol (mean)” value in the assay with C4-2 cells turned out to be 0.17 kBq/mL. Moreover, the “Proliferation assay on cancer cell lines by TTCs Default Pivot #3 IC50 [kBq/mL] 22Rv1 1000cells 375kBq/nmol (mean)” value in the assay with 22Rv1 cells turned out to be 0.71 kBq/mL. In assay [1], the “Internalized in LNCaP fmol/10^6 cells 30 min” value is 55 fmol/10^6 cells, the “Membrane bound in LNCaP fmol/10^6 cells 30 min” value worked out at 237 fmol/10^6 cells, the “Internalized in LNCaP fmol/10^6 cells 2 h” value came to 189 fmol/10^6 cells and the “Membrane bound in LNCaP fmol/10^6 cells 2 h” value is recorded as 438 fmol/10^6 cells. In addition, in assay [2] (setting [3]), the Mean tumor size is 20 mm^2 and the Tumor response result is recorded as “full response”. Moreover, the T/Carea in assay [2] (Example II, day 33 after start of therapy, 750 kBq/kg weekly for 5 weeks) was 0.18. In assay [2] (Example III, day 64 after start of therapy, single treatment 1.5 MBq/kg), this compound had a T/Carea of 0.51. For the same compound, in assay [2] (setting [4]), the T/Carea is recorded as 0.29.
For the compound `O=C([O-])CN1CCN(CC(=O)[O-])CCN(CC(=O)NCC2CCC(C(=O)NC(Cc3ccc4ccccc4c3)C(=O)NCCCCC(NC(=O)NC(CCC(=O)O)C(=O)O)C(=O)O)CC2)CCN(CC(=O)[O-])CC1.[227Th+4]` [Example 1-B-D-227Th, [^227Th]Thorium-(3S,10S,14R)-3-[(naphthalen-2-yl)methyl]-1,4,12-trioxo-1-{(1r,4S)-4-[(2-{4,7,10-tris[(carboxy-kappaO)methyl]-1,4,7,10-tetraazacyclododecan-1-yl-kappa^4N^1,N^4,N^7,N^10}acetamido)methyl]cyclohexyl}-2,5,11,13-tetraazahexadecane-10,14,16-tricarboxylate], the “Proliferation assay on cancer cell lines by TTCs Default Pivot #3 IC50 [kBq/mL] C4-2 1000cells 375kBq/nmol (mean)” value with C4-2 cells is 3.15 kBq/mL. The “Proliferation assay on cancer cell lines by TTCs Default Pivot #3 IC50 [kBq/mL] 22Rv1 1000cells 375kBq/nmol (mean)” value in the assay on 22Rv1 cells is listed as 1.28 kBq/mL. Further, in assay [1], the “Internalized in LNCaP fmol/10^6 cells 30 min” value is 3 fmol/10^6 cells, the “Membrane bound in LNCaP fmol/10^6 cells 30 min” value is on record as 16 fmol/10^6 cells, the “Internalized in LNCaP fmol/10^6 cells 2 h” value was 12 fmol/10^6 cells and the “Membrane bound in LNCaP fmol/10^6 cells 2 h” value worked out at 30 fmol/10^6 cells. Besides, in assay [2] (Example IV, day 36 after start of therapy, once 1 MBq/kg), the T/Carea is on record as 0.81. The T/Carea in assay [2] (setting [4]) came out at 0.91.

For the origin of these results see patent US20230072421A1, “TARGETED RADIOPHARMACEUTICALS FOR THE DIAGNOSIS AND TREATMENT OF PROSTATE CANCER” (Bayer AS, priority 2019, published 2023).
